What is called IC50 is the concentration needed to halve the response being measured.

This is an account of results in patent US20130196986A1 (priority 2010, published 2013).

This assay deals with T1, P2X7 receptor (Homo sapiens, UniProt Q99572).
T1 construct: stably expressing the full length P2X7 receptor; expressed in transfected cells
T1 sequence (Q99572 1-595): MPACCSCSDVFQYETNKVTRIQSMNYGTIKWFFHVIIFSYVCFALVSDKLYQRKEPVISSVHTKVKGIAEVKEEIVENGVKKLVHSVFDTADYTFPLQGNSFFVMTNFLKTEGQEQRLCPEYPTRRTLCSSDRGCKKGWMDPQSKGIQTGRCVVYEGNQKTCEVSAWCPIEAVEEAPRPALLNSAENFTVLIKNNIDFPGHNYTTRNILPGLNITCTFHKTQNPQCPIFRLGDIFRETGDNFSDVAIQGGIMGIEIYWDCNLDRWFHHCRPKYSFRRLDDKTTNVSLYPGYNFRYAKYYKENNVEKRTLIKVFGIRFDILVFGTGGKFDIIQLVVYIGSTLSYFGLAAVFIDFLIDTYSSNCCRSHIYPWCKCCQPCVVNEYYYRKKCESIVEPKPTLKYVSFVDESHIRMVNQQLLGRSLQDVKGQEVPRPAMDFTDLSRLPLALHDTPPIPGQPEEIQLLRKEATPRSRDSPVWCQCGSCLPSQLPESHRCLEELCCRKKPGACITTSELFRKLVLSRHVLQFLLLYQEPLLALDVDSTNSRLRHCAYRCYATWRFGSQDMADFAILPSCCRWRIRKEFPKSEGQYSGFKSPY
Briefly: Ca++ flux assay (FLIPR) in P2X7-HEK-293 cell line stably expressing the full length P2X7 receptor, Bz-ATP activation. The class given is cell-based. The note with it: P2X7-HEK-293 cells; agonist Bz-ATP; fluorescence as total area over 90 seconds; read-out: P2X7 Ca Flux hu IC50. The procedure: The ability of Triazolopyrazinone Compounds to inhibit P2X7 function can be determined in Ca^++ flux assay using a P2X7-HEK-293 cell line stably expressing the full length P2X7 receptor. The assay protocol is as described in Cheewatrakoolpong et al., Biochem. Biophys. Res. Commun. 332:17-27 (2005) with minor modification, and is as summarized hereinafter. Briefly, cells were plated in poly-D-lysine-coated wells, and incubated at 37° C. for 24 hours. Cells were then incubated for 1 hour with a loading buffer which contains a dye sensitive to changes in Ca^++ concentration (lx Calcium Plus no wash dye from Molecular Devices, Sunnyvale, Calif.). The test compounds were added to the wells in the dye loading step. Plates containing the wells were transferred to a Fluorometric Imaging Plate Reader (Molecular Devices, Sunnyvale, Calif.). The cells were activated by the addition of the P2X7 receptor agonist 2′(3) —O-(4-benzoylbenzoyl)adenosine 5′-triphosphate (Bz-ATP from Sigma-Aldrich, St. Louis, Mo.), and the fluorescence was monitored for 90 seconds. The fluorescent signal was determined as the total area over the 90 second run time. Using this protocol, representative Triazolopyrazinone Compounds, compounds 1471 were tested. Tables 3 to 6 show the concentration at which 50% of the maximum response in the Ca^++ was inhibited (IC50) for each of the test compounds.
For the compound `Cc1c(Cl)cccc1-n1ccn2c(N(Cc3ccccc3)Cc3ccccc3)nnc2c1=O` [Compound 170, 7-(3-chloro-2-methylphenyl)-3-(dibenzylamino)-[1,2,4]triazolo[4,3-a]pyrazin-8(7H)-one], the IC50 came out at 106 nM.
For the compound `Cc1c(Cl)cccc1-n1ccn2c(SCc3ccccc3N3CCN(C(=O)OC(C)(C)C)CC3)nnc2c1=O` [Compound 31, tert-butyl 4-(2-((7-(3-chloro-2-methylphenyl)-8-oxo-7,8-dihydro-[1,2,4]triazolo[4,3-a]pyrazin-3-ylthio)methyl)phenyl)piperazine-1-carboxylate], the IC50 came out at 1170 nM.
Regarding `Cc1ccc(-c2ccccc2CS(=O)(=O)c2nnc3c(=O)n(-c4cccc(C(F)(F)F)c4C)ccn23)s1` [Compound 141], the IC50 is 37 nM.
As for `O=c1c2nnc(S(=O)(=O)C(c3ccccc3)c3ccccc3)n2ccn1-c1cccc(C(F)(F)F)c1Cl` [Compound 144, 3-(benzhydrylsulfonyl)-7-(2-chloro-3-(trifluoromethyl)phenyl)-[1,2,4]triazolo[4,3-a]pyrazin-8(7H)-one], the IC50 amounted to 130 nM.
For `Cc1c(Cl)cccc1-n1ccn2c(SCc3c(F)c(F)c(F)c(F)c3F)nnc2c1=O` [Compound 106, 7-(3-chloro-2-methylphenyl)-3-(perfluorobenzylthio)-[1,2,4]triazolo[4,3-a]pyrazin-8(7H)-one], the IC50 was found to be 387 nM.
For `Cc1c(Cl)cccc1-n1ccn2c(S(=O)(=O)Cc3ccc(F)cc3Cl)nnc2c1=O` [Compound 148, 7-(3-chloro-2-methylphenyl)-3-(2-chloro-4-fluorobenzylsulfonyl)-[1,2,4]triazolo[4,3-a]pyrazin-8(7H)-one], the IC50 worked out at 47 nM.
Consider `Cc1c(Cl)cccc1-n1ccn2c(SCc3cc(F)c(F)c(F)c3)nnc2c1=O` [Compound 102, 7-(3-chloro-2-methylphenyl)-3-(3,4,5-trifluorobenzylthio)-[1,2,4]triazolo[4,3-a]pyrazin-8(7H)-one], for which the IC50 was determined as 925 nM.
Take `Cc1c(-n2ccn3c(SCc4ccccc4-c4ccc(F)cc4)nnc3c2=O)cccc1C(F)(F)F` [Compound 10, 3-((4′-fluorobiphenyl-2-yl)rnethylthio)-7-(2-methyl-3-(trifluoromethyl)phenyl)-[1,2,4]triazolo[4,3-a]pyrazin-8(7H)-one]: the concentration for half-maximal inhibition (IC50) was found to be 42.6 nM.
Take `Cc1c(-n2ccn3c(SCc4ccccc4Oc4ccccc4)nnc3c2=O)cccc1C(F)(F)F` [Compound 20, 7-(2-methyl-3-(trifluoromethyl)phenyl)-3-(2-phenoxybenzylthio)-[1,2,4]triazolo[4,3-a]pyrazin-8(7H)-one]: the concentration for half-maximal inhibition (IC50) amounted to 144 nM.
With `O=c1c2nnc(SCc3ccccc3)n2ccn1-c1ccccc1Cl` [Compound 81, 3-(benzylthio)-7-(2-chlorophenyl)-[1,2,4]triazolo[4,3-a]pyrazin-8(7H)-one], the half-inhibitory concentration (IC50) is 946 nM.
As for `Cc1onc(-c2ccccc2)c1CS(=O)(=O)c1nnc2c(=O)n(-c3cccc(C(F)(F)F)c3C)ccn12` [Compound 160, 7-(2-methyl-3-(trifluoromethyl)phenyl)-3-((5-methyl-3-phenylisoxazol-4-yl)methylsulfonyl)-[1,2,4]triazolo[4,3-a]pyrazin-8(7H)-one], the IC50 came out at 284 nM.
Take `Cc1c(Cl)cccc1-n1ccn2c(S(=O)(=O)Cc3cc(Cl)cc(Cl)c3)nnc2c1=O` [Compound 161, 7-(3-chloro-2-methylphenyl)-3-(3,5-dichlorobenzylsulfonyl)-[1,2,4]triazolo[4,3-a]pyrazin-8(7H)-one]: the 50% inhibitory concentration (IC50) amounted to 335 nM.
To `Cc1ccccc1CSc1nnc2c(=O)n(-c3cccc(C(F)(F)F)c3Cl)ccn12` [Compound 47, 7-(2-chloro-3-(trifluorornethyl)phenyl)-3-(2-methylbenzylthio)-[1,2,4]triazolo[4,3-a]pyrazin-8(7H)-one] belongs 41.8 nM.
The figure for `Cc1c(Cl)cccc1-n1ccn2c(S(=O)(=O)Cc3ccccc3N3CCOCC3)nnc2c1=O` [Compound 158, 7-(3-chloro-2-methylphenyl)-3-(2-morpholinobenzylsulfonyl)-[1,2,4]triazolo[4,3-a]pyrazin-8(7H)-one] is 189 nM.
